Data: publication PMC9229919, “4-Aminoquinoline-Based Adamantanes as Potential Anticholinesterase Agents in Symptomatic Treatment of Alzheimer’s Disease” (Pharmaceutics, 2022)
Where two headings read alike, the source gives them in different places.

Key:
[1] = target: T1, recombinant human AChE (Homo sapiens, UniProt P22303); assay: biochemical; type: biochemical; settings: for IS: IS = Ki(BChE)/Ki(AChE), IS > 1 selective to AChE
T1 construct: gift of Dr Florian Nachon (Armed Forces Biomedical Research Institute, Brétigny-sur-Orge, France)
T1 sequence (P22303 32-614): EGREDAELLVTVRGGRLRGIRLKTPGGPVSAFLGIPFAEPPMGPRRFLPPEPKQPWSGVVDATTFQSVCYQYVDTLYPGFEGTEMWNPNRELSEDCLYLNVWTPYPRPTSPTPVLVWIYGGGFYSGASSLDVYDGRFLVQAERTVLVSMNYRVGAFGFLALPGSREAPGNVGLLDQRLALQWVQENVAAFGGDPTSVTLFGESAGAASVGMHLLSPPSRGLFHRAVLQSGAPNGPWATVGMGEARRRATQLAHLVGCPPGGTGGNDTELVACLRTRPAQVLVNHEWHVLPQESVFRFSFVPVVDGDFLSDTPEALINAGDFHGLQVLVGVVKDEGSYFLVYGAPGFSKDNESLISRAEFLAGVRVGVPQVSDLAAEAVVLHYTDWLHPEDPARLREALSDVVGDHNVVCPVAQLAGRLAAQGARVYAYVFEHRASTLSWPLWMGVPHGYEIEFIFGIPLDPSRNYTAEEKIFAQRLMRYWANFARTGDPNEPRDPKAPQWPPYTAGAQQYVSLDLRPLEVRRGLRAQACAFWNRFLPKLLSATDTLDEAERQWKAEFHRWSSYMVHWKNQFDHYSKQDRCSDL
Experimental: (§1) Acetylthiocholine (ATCh) and 5,5′-dithiobis(2-nitrobenzoic acid) (DTNB) were purchased from Sigma-Aldrich, St. Louis, MO, USA. ATCh was dissolved in water and DTNB in 0.1 M sodium phosphate buffer (pH 7.4). The 4-aminoquinilines were dissolved in DMSO and all further dilutions were made in water.
(§2) The sources of AChE and BChE were purified human BChE and recombinant human AChE that was kindly provided by Dr Florian Nachon (Département de Toxicologie, Armed Forces Biomedical Research Institute, Brétigny-sur-Orge, France). […] The enzymes were diluted in sodium phosphate buffer 0.1 M (pH 7.4) containing 0.1% BSA.
(§3) Enzyme activities were measured spectrophotometrically using a slightly modified Ellman method, as described earlier. […] At least three inhibitor concentrations for each substrate concentration were used in at least three experiments. The apparent inhibition constant (Ki,app) was calculated using the Hunter–Downs Equation and linear regression analysis:(1) Ki,app=vi·i/v0−vi=Ki+Ki/KS·s where the y-intercept determines the enzyme-inhibitor dissociation constant (Ki), while the x-intercept determines the enzyme-substrate dissociation constant, KS.
(§4) The Hunter–Downs Equation was used under the assumption that the substrate, due to relatively low concentrations used in experiments, would bind only to the catalytic site of the enzymes, while the inhibitors would bind to both CAS and/or PAs. This allowed the type of inhibition to be determined from Ki,app vs. substrate concentration ([S]) dependency on Hunter–Downs plot.
(§5) The final content of DMSO in the measurements was up to 0.2%. […] The measurements were performed at 25 °C on a Tecan Infinite M200Pro plate reader (Tecan Austria GmbH, Salzburg, Austria).

[2] = target: T2, purified human BChE (Homo sapiens, UniProt P06276); assay: biochemical; type: biochemical
T2 construct: possibly also a gift of Dr Florian Nachon (the sentence is ambiguous)
T2 sequence (P06276 29-602): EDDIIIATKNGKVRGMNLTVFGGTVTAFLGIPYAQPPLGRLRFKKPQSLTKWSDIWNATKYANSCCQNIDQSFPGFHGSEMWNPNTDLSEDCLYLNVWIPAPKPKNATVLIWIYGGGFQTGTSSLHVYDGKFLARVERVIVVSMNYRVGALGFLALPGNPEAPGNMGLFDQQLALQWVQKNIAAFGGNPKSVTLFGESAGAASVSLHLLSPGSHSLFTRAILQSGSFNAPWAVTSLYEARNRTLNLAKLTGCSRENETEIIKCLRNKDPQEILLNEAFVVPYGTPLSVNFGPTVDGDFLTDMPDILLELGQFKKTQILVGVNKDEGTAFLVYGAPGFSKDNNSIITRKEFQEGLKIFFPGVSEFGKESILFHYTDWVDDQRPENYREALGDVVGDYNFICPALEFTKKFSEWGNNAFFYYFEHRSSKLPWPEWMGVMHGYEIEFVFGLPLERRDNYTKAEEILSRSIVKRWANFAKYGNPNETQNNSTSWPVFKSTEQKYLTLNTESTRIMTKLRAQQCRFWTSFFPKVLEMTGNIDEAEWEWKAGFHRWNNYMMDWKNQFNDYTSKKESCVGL
Experimental: as §1, §2, §3, §4, §5

[3] = Ferric reducing antioxidant power (FRAP) assay; settings: mean ± standard error of three experiments;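 note: expressed as µM Fe2+ equivalents from an FeSO4·7H2O standard curve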
Experimental: . All the chemicals were purchased from Sigma-Aldrich (St. Louis, MO, USA), except for tripyridyltriazine (TPTZ) (Fluka, Buchs, Switzerland) and FeCl3 (Kemika, Zagreb, Croatia). The FRAP assay was assessed according to Benzie and Strain [53] with slight procedure adjustments for 96-well microplates. The method is based on the reduction of the ferric-tripyridyltriazine (Fe^3+-TPTZ) complex to ferrous tripyridyltriazine (Fe^2+-TPTZ) by the action of electron-donating compounds at a low pH. Briefly, the FRAP reagent was prepared by mixing acetate buffer (300 mM, pH 3.6), a solution of 10 mM TPTZ in 40 mM HCl, and 20 mM FeCl3 at 10:1:1 (v/v/v). Then, 240 μL of FRAP reagent and 10 μL of sample solution were added to a 96-well plate and incubated at 37 °C for 60 min. The absorbance was measured at 593 nm using a microplate reader (Infinite M200PRO, Tecan Austria GmbH, Salzburg, Austria) against a blank. The reducing capacity was determined for 10 and 100 µM compound concentrations. […]. All measurements were performed in three independent experiments. FRAP values, denominating the reduction of ferric-tripyridyltriazine (Fe^3+-TPTZ) to ferrous tripyridyltriazine (Fe^2+-TPTZ) by 4-aminoquinolines were calculated based on a standard curve obtained using […].

[4] = Reverse-phase thin-layer chromatographic lipophilicity (RF, RM0); type: physicochemical; settings: for RM0: intercept of RM = RM0 + bC; for b: slope of RM = RM0 + bC; for RF, Methanol/Water/Hydrochloric acid (conc.), mobile phase I / RF, Dioxane/Water/Hydrochloric acid (conc.), mobile phase II / RF, Methanol/Water/Hydrochloric acid (conc.), mobile phase II / RF, Acetone/Water/Hydrochloric acid (conc.), mobile phase III / RF, Dioxane/Water/Hydrochloric acid (conc.), mobile phase III / RF, Methanol/Water/Hydrochloric acid (conc.), mobile phase III / RF, Dioxane/Water/Hydrochloric acid (conc.), mobile phase IV / RF, Acetone/Water/Hydrochloric acid (conc.), mobile phase IV / RF, Methanol/Water/Hydrochloric acid (conc.), mobile phase IV / RF, Acetone/Water/Hydrochloric acid (conc.), mobile phase IX / RF, Methanol/Water/Hydrochloric acid (conc.), mobile phase IX / RF, Dioxane/Water/Hydrochloric acid (conc.), mobile phase V / RF, Acetone/Water/Hydrochloric acid (conc.), mobile phase V / RF, Methanol/Water/Hydrochloric acid (conc.), mobile phase V / RF, Dioxane/Water/Hydrochloric acid (conc.), mobile phase VI / RF, Acetone/Water/Hydrochloric acid (conc.), mobile phase VI / RF, Methanol/Water/Hydrochloric acid (conc.), mobile phase VI / RF, Acetone/Water/Hydrochloric acid (conc.), mobile phase VII / RF, Methanol/Water/Hydrochloric acid (conc.), mobile phase VII / RF, Acetone/Water/Hydrochloric acid (conc.), mobile phase VIII / RF, Methanol/Water/Hydrochloric acid (conc.), mobile phase VIII: RP-18 silica; for RF, Methanol/Water/Hydrochloric acid (conc.), mobile phase I: I = 90%MeOH/5%H2O/5%HCl; for RF, Dioxane/Water/Hydrochloric acid (conc.), mobile phase II: II = 80%Dioxane/15%H2O/5%HCl; for RF, Methanol/Water/Hydrochloric acid (conc.), mobile phase II: II = 85%MeOH/10%H2O/5%HCl; for RF, Acetone/Water/Hydrochloric acid (conc.), mobile phase III: III = 70%AC/25%H2O/5%HCl; for RF, Dioxane/Water/Hydrochloric acid (conc.), mobile phase III: III = 70%Dioxane/25%H2O/5%HCl; for RF, Methanol/Water/Hydrochloric acid (conc.), mobile phase III: III = 80%MeOH/15%H2O/5%HCl; for RF, Dioxane/Water/Hydrochloric acid (conc.), mobile phase IV: IV = 60%Dioxane/35%H2O/5%HCl; for RF, Acetone/Water/Hydrochloric acid (conc.), mobile phase IV: IV = 65%AC/30%H2O/5%HCl; for RF, Methanol/Water/Hydrochloric acid (conc.), mobile phase IV: IV = 75%MeOH/20%H2O/5%HCl; for RF, Acetone/Water/Hydrochloric acid (conc.), mobile phase IX: IX = 40%AC/55%H2O/5%HCl; for RF, Methanol/Water/Hydrochloric acid (conc.), mobile phase IX: IX = 50%MeOH/45%H2O/5%HCl; for RF, Dioxane/Water/Hydrochloric acid (conc.), mobile phase V: V = 50%Dioxane/45%H2O/5%HCl; for RF, Acetone/Water/Hydrochloric acid (conc.), mobile phase V: V = 60%AC/35%H2O/5%HCl; for RF, Methanol/Water/Hydrochloric acid (conc.), mobile phase V: V = 70%MeOH/25%H2O/5%HCl; for RF, Dioxane/Water/Hydrochloric acid (conc.), mobile phase VI: VI = 40%Dioxane/55%H2O/5%HCl; for RF, Acetone/Water/Hydrochloric acid (conc.), mobile phase VI: VI = 55%AC/40%H2O/5%HCl; for RF, Methanol/Water/Hydrochloric acid (conc.), mobile phase VI: VI = 65%MeOH/30%H2O/5%HCl; for RF, Acetone/Water/Hydrochloric acid (conc.), mobile phase VII: VII = 50%AC/45%H2O/5%HCl; for RF, Methanol/Water/Hydrochloric acid (conc.), mobile phase VII: VII = 60%MeOH/35%H2O/5%HCl; for RF, Acetone/Water/Hydrochloric acid (conc.), mobile phase VIII: VIII = 45%AC/50%H2O/5%HCl; for RF, Methanol/Water/Hydrochloric acid (conc.), mobile phase VIII: VIII = 55%MeOH/40%H2O/5%HCl
Experimental: Chromatographic determination of lipophilicity
Merck, Darmstadt, Germany). The mobile phase contained organic modifier (methanol, acetone or dioxane), water and hydrochloric acid.
Methanol was varied in the range […]
with an increment of 10%. […]
before chromatogram development. The solvent developing distance was 4.5 cm. Detection of […]
All experiments were performed at ambient temperature (22±2 °C). Retention parameters were calculated as previously described. […]

[5] = log (Ki/µM AChE), read-out: Y Measured 1 log(ki)Ache (converted)
[6] = ± standard error, 25 °C, ATCh substrate, read-out: Ki AChE
[7] = logarithm of Ki in µM, BChE, dependent variable of the QSAR model, read-out: Y Measured 2 log(ki)Bche, log (Ki/µM BChE) (converted)
[8] = ± standard error, 25 °C, ATCh substrate, read-out: Ki BChE
[9] = Acetone/Water/Hydrochloric acid (conc.)
[10] = Dioxane/Water/Hydrochloric acid (conc.)
[11] = Methanol/Water/Hydrochloric acid (conc.)

Row | Structure (SMILES) | IS [1] | Ki [1, 5] | Ki [1, 6] | Ki [2, 7] | Ki [2, 8] | FRAP ([3]; 10 µM compound) | FRAP ([3]; 100 µM compound) | RM0 [4, 9] | b [4, 9] | RM0 [4, 10] | b [4, 10] | RM0 [4, 11] | b [4, 11] | RF, Methanol/Water/Hydrochloric acid (conc.), mobile phase I [4] | RF, Dioxane/Water/Hydrochloric acid (conc.), mobile phase II [4] | RF, Methanol/Water/Hydrochloric acid (conc.), mobile phase II [4] | RF, Acetone/Water/Hydrochloric acid (conc.), mobile phase III [4] | RF, Dioxane/Water/Hydrochloric acid (conc.), mobile phase III [4] | RF, Methanol/Water/Hydrochloric acid (conc.), mobile phase III [4] | RF, Dioxane/Water/Hydrochloric acid (conc.), mobile phase IV [4] | further results
1 | Clc1ccc2c(NCCCN3CCN(CCCNCCC45CC6CC(CC(C6)C4)C5)CC3)ccnc2c1 [Compound 23] | 4.1 | 0.44 µM | 0.44 ± 0.09 µM | 1.8 µM | 1.8 ± 0.2 µM | 1.4 ± 0.1 µM | 20 ± 5 µM | 1.784 | 2.934 | 0.7935 | 1.661 | 2.211 | 2.892 | 0.64 | 0.73 | 0.66 | 0.62 | 0.71 | 0.54 | 0.71 | RF, Acetone/Water/Hydrochloric acid (conc.), mobile phase IV [4]: 0.58; RF, Methanol/Water/Hydrochloric acid (conc.), mobile phase IV [4]: 0.53; RF, Acetone/Water/Hydrochloric acid (conc.), mobile phase IX [4]: 0.15; RF, Methanol/Water/Hydrochloric acid (conc.), mobile phase IX [4]: 0.12; RF, Dioxane/Water/Hydrochloric acid (conc.), mobile phase V [4]: 0.51; RF, Acetone/Water/Hydrochloric acid (conc.), mobile phase V [4]: 0.48; RF, Methanol/Water/Hydrochloric acid (conc.), mobile phase V [4]: 0.44; RF, Dioxane/Water/Hydrochloric acid (conc.), mobile phase VI [4]: 0.38; RF, Acetone/Water/Hydrochloric acid (conc.), mobile phase VI [4]: 0.42; RF, Methanol/Water/Hydrochloric acid (conc.), mobile phase VI [4]: 0.37; RF, Acetone/Water/Hydrochloric acid (conc.), mobile phase VII [4]: 0.35; RF, Methanol/Water/Hydrochloric acid (conc.), mobile phase VII [4]: 0.25; RF, Acetone/Water/Hydrochloric acid (conc.), mobile phase VIII [4]: 0.31; RF, Methanol/Water/Hydrochloric acid (conc.), mobile phase VIII [4]: 0.18
2 | CC(CCNCCC12CC3CC(CC(C3)C1)C2)Nc1ccnc2ccccc12 (centres unmarked) [Compound 16] | 0.7 | 0.52 µM | 0.52 ± 0.02 µM | 0.38 µM | 0.38 ± 0.03 µM | 4.1 ± 0.4 µM | 46 ± 4 µM | 1.94 | 3.086 | 0.9042 | 1.814 | 2.5841 | 3.345 | 0.7 | 0.74 | 0.64 | 0.59 | 0.7 | 0.51 | 0.7 | RF, Acetone/Water/Hydrochloric acid (conc.), mobile phase IV [4]: 0.54; RF, Methanol/Water/Hydrochloric acid (conc.), mobile phase IV [4]: 0.5; RF, Acetone/Water/Hydrochloric acid (conc.), mobile phase IX [4]: 0.12; RF, Methanol/Water/Hydrochloric acid (conc.), mobile phase IX [4]: 0.09; RF, Dioxane/Water/Hydrochloric acid (conc.), mobile phase V [4]: 0.5; RF, Acetone/Water/Hydrochloric acid (conc.), mobile phase V [4]: 0.44; RF, Methanol/Water/Hydrochloric acid (conc.), mobile phase V [4]: 0.42; RF, Dioxane/Water/Hydrochloric acid (conc.), mobile phase VI [4]: 0.35; RF, Acetone/Water/Hydrochloric acid (conc.), mobile phase VI [4]: 0.39; RF, Methanol/Water/Hydrochloric acid (conc.), mobile phase VI [4]: 0.31; RF, Acetone/Water/Hydrochloric acid (conc.), mobile phase VII [4]: 0.33; RF, Methanol/Water/Hydrochloric acid (conc.), mobile phase VII [4]: 0.21; RF, Acetone/Water/Hydrochloric acid (conc.), mobile phase VIII [4]: 0.26; RF, Methanol/Water/Hydrochloric acid (conc.), mobile phase VIII [4]: 0.15
